Values of other authors, collected in patent US20220202680A1, “INCREASING THE STABILITY OF AGENTS FOR TREATING KERATIN MATERIAL” (Henkel AG & Co. KGaA, priority 2019, published 2022).

Settings: for solubility in water: 25° C.

For `O=S(=O)([O-])c1ccc(N=Nc2c(O)ccc3ccccc23)cc1.[Na+]` [Acid Orange 7, sodium salt of 4-[(2-hydroxy-1-naphthyl)azo]benzene sulphonate], the solubility in water is given as “more than 7 g/L”.

In the case of `O=C([O-])c1c(Cl)c(Cl)c(Cl)c(Cl)c1-c1c2c(Br)cc(=O)c(Br)c-2oc2c(Br)c(O)cc(Br)c12.O=C([O-])c1c(Cl)c(Cl)c(Cl)c(Cl)c1-c1c2c(Br)cc(=O)c(Br)c-2oc2c(Br)c(O)cc(Br)c12.[Na+].[Na+]` [Acid Red 92, disodium salt of 3,4,5,6-tetrachloro-2-(1,4,5,8-tetrabromo-6-hydroxy-3-oxoxanthen-9-yl)benzoic acid], the solubility in water is given as “greater than 10 g/L”.

In the case of `Nc1cc(S(=O)(=O)[O-])cc2cc(S(=O)(=O)[O-])c(N=Nc3ccccc3)c(O)c12.[Na+].[Na+]` [Acid Red 33, diantrium salt of 5-amino-4-hydroxy-3-(phenylazo)-naphthalene-2,7-disulphonate], the solubility in water is listed as 2500 µg/mL.

For `O=C([O-])C1=NN(c2ccc(S(=O)(=O)[O-])cc2)C(=O)C1N=Nc1ccc(S(=O)(=O)[O-])cc1.[Na+].[Na+].[Na+]` (stereo not shown) [Acid Yellow 23, trisodium salt of 4,5-dihydro-5-oxo-1-(4-sulfophenyl)-4-((4-sulfophenyl)azo)-1H-pyrazole-3-carboxylic acid], the “solubility in water (in words)” value (at 25° C.) is listed as “highly soluble”.
